Results from patent publication US20240360126A1, “PYRAZOLO[3,4-B]PYRIDINE COMPOUNDS FOR THE TREATMENT OF AUTOIMMUNE DISEASE” (Hoffmann-La Roche Inc., priority 2021, published 2024).

Key:
[1] = 3T3 in vitro phototoxicity assay (Neutral Red uptake); format: cell-based, mouse; settings: mouse, Balb/c 3T3 mouse fibroblasts (clone A 31, ATCC CCL 163); approx. 5 J/cm^2 UVA light
Excerpt: (§1) Phototoxicity is defined as a toxic response that is elicited after the first exposure of the skin to certain chemicals and subsequent exposure to light, or that is induced similarly by skin irradiation after systemic administration of a chemical substance. The assay used in this study is designed to detect the phototoxic potential of a chemical by using a simple in vitro cytotoxicity assay with Balb/c 3T3 mouse fibroblasts. The principle of this test is a comparison of the cytotoxicity of a chemical when tested with and without exposure to a non-toxic dose of UVA-light. Cytotoxicity is expressed as a dose dependent reduction of the growth rate of cells as determined by uptake of the vital dye Neutral Red one day after treatment.
(§2) Preparation of Stock Solution and Dosage of Test Item A small amount of substance was weighed and formulated freshly in DMSO just before the start of the exposure of the cells. This stock solution or appropriate dilutions with DMSO were added to the cell suspensions to obtain the required final concentrations. All solutions were generally prepared in Eppendorf caps and discarded after use.
(§3) • Chlorpromazine (HCL) (Sigma, Batch/Lot No.: 120M1328V), test concentration: 300 μg/mL, Solvent: PBS/3% DMSO
(§4) For this study the Neutral Red uptake (NRU) assay of Borenfreund and Puemer (Borenfreund, E, Puemer J A. Toxicity determined in vitro by morphological alterations and Neutral Red absorption. Toxicology Lett. 1985; 24:119-124) modified according to INVITTOX protocol No 78 (ERGATT/FRAME data bank of in vitro techniques in toxicology. INVITTOX PROTOCOL No 78. 3T3 NRU Phototoxicity Assay. March 1994) has been adapted to examine a possible phototoxic potential of the test item. This assay is based on the active uptake of the Neutral Red dye into the lysosomes of cultured murine fibroblasts. Because lysosomal membranes are known to be a site of action of many phototoxic compounds, this assay can provide a measure of potential for phototoxic injury.
(§5) A murine fibroblasts clone A 31 (ATCC no. CCL 163—passage No. 108) were cultured in 175 cm^2 tissue culture grade flasks, containing sDMEM (Dulbecco's […] Essential Medium, supplemented with 10% fetal calf serum, 2 mM L-glutamine, 100 units/ml Penicillin and 100 μg/ml streptomycin) at 37° C. in a humidified atmosphere of 6% CO2. Before cells approach confluence they were removed from flasks by trypsinisation. Prior to use in an assay, the cells were transferred to 96-well microtiter plates at a concentration of 1×10^4 cells/well in 100 μl volumes of sDMEM and allowed to attach for 24 h. […]
(§6) For each test item the microtiter plates were prepared according to Table 6. […] UV flux was measured with a UV-meter (Dr. Gröbel RM21). […]

[2] = tested on: Balb/c 3T3 mouse fibroblasts; assay: as above; format: cell-based; settings: IC50 with and without UV exposure compared; cut-off >5
Excerpt: as §1, §2, §3, §4, §5, §6

`Cc1cc(N2CC[C@@H](c3ncc(N4CCOC[C@@H](N)C4)cc3C)[C@H](C)C2)c2cnn(C)c2n1` [Example 28, (6S)-4-[6-[(3S,4R)-1-(1,6-dimethylpyrazolo[3,4-b]pyridin-4-yl)-3-methyl-4-piperidyl]-5-methyl-3-pyridyl]-1,4-oxazepan-6-amine] showed an IC50 at 1 h [1] of over 120 µg/mL and a Phototoxicity factor [2] of 1.

Work on `Cc1cc(N2CC[C@H](c3ccc(N4CCOC[C@@H](N)C4)cn3)[C@@H](C)C2)c2cnn(C)c2n1` [Example 40, (6S)-4-[6-[(3R,4S)-1-(1,6-dimethylpyrazolo[3,4-b]pyridin-4-yl)-3-methyl-4-piperidyl]-3-pyridyl]-1,4-oxazepan-6-amine] yielded an IC50 at 1 h [1] of over 120 µg/mL and a Phototoxicity factor [2] of 1.
